This is an account of results in patent US20240335372A1, “Sustained-Release Vaginal Films” (priority 2021, published 2024).

Structures are written as SMILES. Where two headings read alike, the source gives them in different places.

A short description of data set [1]: Macaque (NHP) pharmacokinetic study after vaginal film administration: vaginal swabs, plasma, PBMCs. The procedure: In NHP film evaluations, both vaginal fluid and blood components (e.g. plasma) samples were collected for at least 31 days post-film administration to assess drug levels and evaluate vaginal release and systemic exposure. […] In study 2, MPT films with increased LNG dose (e.g., 3.5 mg vs. 1 mg) were evaluated. […] Study 3 utilized the same formulation developed for Study 2 by simply replacing LNG with ENG.
The developed MPT film was administered in six macaques.

Data set [2] can be described thus: In vitro drug release of APIs from the extended-release polymer matrix film (Eudragit with PLGA). Type of data set: physicochemical. The settings on record: FIG. 3; API in Eudragit/PLGA film. The procedure:
An initial screening study was conducted to identify suitable polymers for this application.
Based on visual disintegration it was identified that only the combination of PLGA and Eudragit polymers was successful in extending the disintegration time (FIG. 2). […] This burst release could be attributed to the hydrophilic nature of the drug.

A short description of data set [3]: EFdA-TP elimination half-life in macaques. Type of data set: in vivo. The note with it: macaques vs humans.
For data set [4] the following is noted: humans; cited from earlier work.
The conditions of data set [5]: macaques; cited from earlier work.

In the case of `C#C[C@]1(CO)O[C@@H](n2cnc3c(N)nc(F)nc32)C[C@@H]1O` [EFdA, 4′-Ethynyl-2-fluoro-2′-deoxyadenosine], in data set [1] (female, macaque, in vivo), the “detectable levels present in the vaginal fluid until day” value was 31 days; the “detected in swabs until day” value amounted to 31 days; the “duration of release, vaginal swab and plasma levels” value was found to be 30 days. Besides, in data set [1] (female, macaque, in vivo, 28 day), the “animals above BLQ” value was 2/3. The “animals above BLQ” value in data set [1] (female, macaque, in vivo, 31 day) is given as 1/3. In data set [1] (in vivo), the “drug levels in vivo” value is given as “sustained drug levels” and the “plasma half-life compared with previously reported values after oral administration” value was “significantly higher”.

For `C#C[C@]1(O)CC[C@H]2[C@@H]3CCC4=CC(=O)CC[C@@H]4[C@H]3CC[C@@]21CC` [LNG, levonorgestrel], in data set [1] (female, macaque, in vivo), the “animals above BLQ” value is listed as 0/3; the “animals with swab levels above BLQ” value is given as 2/3; the “detectable levels present in the vaginal fluid until day” value stood at 31 days; the “duration of release, vaginal swab and plasma levels” value came to 30 days. Moreover, the “animals above BLQ” value in data set [1] (female, macaque, in vivo, 7 day) is recorded as 1/3. The “plasma half-life compared with previously reported values after oral administration” value in data set [1] (in vivo) is reported as “significantly higher”.

As to `CC(C)OC(=O)[C@H](C)N[P@](=O)(OC[C@H]1O[C@@H](n2ccc(=O)[nH]c2=O)[C@](C)(F)[C@@H]1O)Oc1ccccc1` [SBV, Sofosbuvir], in data set [2], the “drug release profile in the extended-release polymer matrix” value (“drug release profile” below) was “burst release”.

Consider `C#C[C@]1(COP(=O)(O)OP(=O)(O)OP(=O)(O)O)O[C@@H](n2cnc3c(N)nc(F)nc32)C[C@@H]1O` [EFdA-TP], for which the “fold shorter elimination half-life in macaques than in humans” value in data set [3] is 4-5 times. Also, the elimination half-life is recorded as 190 h in data set [4] and approximately 40 h in data set [5]. Moreover, the “day until which PBMC levels were above the target (0.05 pmol/10^6 PBMCs)” value in data set [1] (MPT film LNG 16 mg, EFdA 14 mg, six macaques) is recorded as not below 14 day. For the same compound, the “average concentration in PBMCs, remained detectable until day 31” value in data set [1] (MPT film LNG 16 mg, EFdA 14 mg, six macaques, day 31) was 0.018 pmol.

As to `C=C1[C@H](CO)[C@@H](O)C[C@@H]1n1cnc2c(=O)[nH]c(N)nc21` [ETV, Entecavir], the “drug release profile” value in data set [2] is given as “burst release”.

For the compound `CCN1C[C@H](C)n2c(c(O)c3c(=O)n(Cc4ccc(F)c(Cl)c4)nc(C(=O)NC)c32)C1=O` [MK-2048], the “drug release profile” value in data set [2] is given as “extended release”.

With `C#C[C@]1(O)CC[C@H]2[C@@H]3CCC4=CC(=O)CC[C@@H]4[C@H]3C(=C)C[C@@]21CC` [ENG, etonogestrel], in data set [1] (in vivo), the “drug levels in vivo” value was “sustained drug levels”.
